Key:
[1] = target: CDK2/Cyclin E1 (Homo sapiens, UniProt P24941); test: ADP-Glo Luminescent Kinase Assay (CDK2/E1-37C); assay type: biochemical; conditions: 0.18 nM CDK2/Cyclin E1, 100 μM ATP, Histone H1, 37° C.; read-out: ADPGLO (CDK2/E1-37C): IC50
In short: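 Activated CDK2/Cyclin E1 (0.18 nM final) preincubated with compound 60 min at 37 °C, then reacted with 100 μM ATP and Histone H1 ([…]) for 90 min at 37 °C in HEPES pH 7.5 buffer. ADP-Glo luminescence normalized to % activity; IC50 from four-parameter fit.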

[2] = tested on: Kuramochi cells RB-WT; test: IncuCyte Kuramochi cell proliferation assay, RB-WT; assay type: cell-based; conditions: 72 hours, cell count
In short: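 mApple-H2B-labelled Kuramochi cells were treated with a 10-point, half-log series (top 20 µM) and imaged at 0 and 72 h. Fluorescent nuclei were counted, and the 0–72 h fold change was normalized to DMSO wells. GI50 came from dose-response fits.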

[3] = tested on: Kuramochi cells RB-KO; test: IncuCyte Kuramochi cell proliferation assay, RB-KO; assay type: cell-based; conditions: 72 hours, cell count, batch mean
Procedure: IncuCyte® assay was used to measure the effect of disclosed compounds on cell proliferation. Fluorescent microscopy images of cells were taken immediately after compound treatment and 72 hours later. Image analysis software was used to obtain cell counts as a function of compound concentration. Kuramochi cells labeled with mApple-H2B were seeded on 384-well assay-ready plates. Plates were placed in an IncuCyte® (Sartorius) and scanned at 0 and 72 hours. IncuCyte® software was used to count the number of fluorescent nuclei in each well. The fold change in cell count from 0 to 72 hours in wells treated with increasing compounds concentrations (10 pts, 1/2 log dilution, 20 µM top concentration) was normalized to DMSO control wells. The normalized cell counts were fit with dose response curves and a GI50 was calculated.

Row | Compound | IC50 [1] [nM] | IC50 [2] [µM] | IC50 [3] [µM]
1 | O=C(O)c1ccc(C2CCC(C(F)(F)F)CC2)cc1COC[C@@H]1CN(C(=O)c2cnn(Cc3ccc(F)cc3)c2)CC12CN(C(=O)C1(C(F)(F)F)CC1)C2 (stereo partly drawn) [Compound I-111] | 500 to 5000 | > 10 | > 10
2 | O=C(O)c1c(COC[C@@H]2CN(C(=O)c3cnn(Cc4ccc(F)cc4C(F)(F)F)c3)CC23CN(C(=O)C2(C(F)(F)F)CC2)C3)cccc1C1CCC(C(F)(F)F)CC1 (stereo partly drawn) [Compound I-76] | ≤ 500 | 5 to 10 | > 10
3 | CC(C)(C(=O)N1CC2(CN(C(=O)c3cnn(Cc4ccc(F)cc4)c3)C[C@H]2COCc2cccc(-c3ccc(C(F)(F)F)s3)c2C(=O)O)C1)C(F)(F)F [I′-66, (S)-2-(((6-(1-(4-fluorobenzyl)-1H-pyrazole-4-carbonyl)-2-(3,3,3-trifluoro-2,2-dimethylpropanoyl)-2,6-diazaspiro[3.4]octan-8-yl)methoxy)methyl)-6-(5-(trifluoromethyl)thiophen-2-yl)benzoic acid] | ≤ 500 | ≤ 0.5 | > 10
4 | CC(C)(Oc1c(COC[C@@H]2CN(C(=O)c3cnn(Cc4ccc(F)cc4)c3)CC23CN(C(=O)C2(C(F)(F)F)CC2)C3)cccc1C1CCC(C(F)(F)F)CC1)C(=O)O (stereo partly drawn) [Compound I-108] | 500 to 5000 | > 10 | > 10
5 | O=C(O)Cc1c(COC[C@@H]2CN(C(=O)c3cnn(Cc4ccc(F)cc4)c3)CC23CN(C(=O)C2(C(F)(F)F)CC2)C3)cccc1C1CCC(C(F)(F)F)CC1 (stereo partly drawn) [Compound I-102, (S)-2-(2-(((6-(1-(4-fluorobenzyl)-1H-pyrazole-4-carbonyl)-2-(1-(trifluoromethyl)cyclopropane-1-carbonyl)-2,6-diazaspiro[3.4]octan-8-yl)methoxy)methyl)-6-(4-(trifluoromethyl)cyclohexyl)phenyl)acetic acid] | ≤ 500 | 0.5 to 5 | > 10
6 | O=C(O)c1c(COC[C@@H]2CN(C(=O)c3cnn(Cc4ccc(C(F)(F)F)cc4)c3)CC23CN(C(=O)C2(C(F)(F)F)CC2)C3)cccc1N1CCC(C(F)(F)F)CC1 [Compound I-72] | 500 to 5000 | > 10 | > 10
7 | CC(C)(C(=O)N1CC2(CN(C(=O)c3cnn(Cc4ccc(F)cc4C(F)(F)F)c3)C[C@H]2COCc2cccc(C3CCC(F)(F)CC3)c2C(=O)O)C1)C(F)(F)F [Compound I-127, (S)-2-(4,4-difluorocyclohexyl)-6-(((6-(1-(4-fluoro-2-(trifluoromethyl)benzyl)-1H-pyrazole-4-carbonyl)-2-(3,3,3-trifluoro-2,2-dimethylpropanoyl)-2,6-diazaspiro[3.4]octan-8-yl)methoxy)methyl)benzoic acid] | ≤ 500 | 0.5 to 5 | > 10
8 | CC1(C)C[C@@H]1C(=O)N1CC2(C1)CN(c1cc(F)c(F)c3ncsc13)C[C@H]2COCc1cccc(C2CCC(F)(F)CC2)c1C(=O)O [I′-72, 2-((((S)-6-(4,5-difluorobenzo[d]thiazol-7-yl)-2-((S)-2,2-dimethylcyclopropane-1-carbonyl)-2,6-diazaspiro[3.4]octan-8-yl)methoxy)methyl)-6-(4,4-difluorocyclohexyl)benzoic acid] | ≤ 500 | ≤ 0.5 | > 10

Second part, led by results:

Row | IC50 [1] [nM] | Compound | IC50 [2] [µM] | IC50 [3] [µM]
9 | ≤ 500 | CC1(C)C[C@@H]1C(=O)N1CC2(CN(C(=O)c3cnn(Cc4ccc(F)cc4)c3)CC2COCc2cccc(C3CCC(C(F)(F)F)CC3)c2C(N)=O)C1 (stereo partly drawn) [I′-84, 2-(((2-((S)-2,2-dimethylcyclopropane-1-carbonyl)-6-(1-(4-fluorobenzyl)-1H-pyrazole-4-carbonyl)-2,6-diazaspiro[3.4]octan-8-yl)methoxy)methyl)-6-(4-(trifluoromethyl)cyclohexyl)benzamide] | > 10 | > 10
10 | ≤ 500 | CC1CCC(c2cccc(COC[C@@H]3CN(c4cc(F)c(F)c5ncsc45)CC34CN(C(=O)C(C)(C)C(F)(F)F)C4)c2C(=O)O)CC1 (stereo partly drawn) [I′-47, (S)-2-(((6-(4,5-difluorobenzo[d]thiazol-7-yl)-2-(3,3,3-trifluoro-2,2-dimethylpropanoyl)-2,6-diazaspiro[3.4]octan-8-yl)methoxy)methyl)-6-(4-methylcyclohexyl)benzoic acid] | > 10 | > 10
11 | ≤ 500 | CC1(C)C[C@@H]1C(=O)N1CC2(CN(C(=O)c3cnn(Cc4ccc(F)cc4)c3)C[C@H]2COCc2cccc(C3CCC(F)(F)CC3)c2C#N)C1 [I′-42, 2-(4,4-difluorocyclohexyl)-6-((((S)-2-((S)-2,2-dimethylcyclopropane-1-carbonyl)-6-(1-(4-fluorobenzyl)-1H-pyrazole-4-carbonyl)-2,6-diazaspiro[3.4]octan-8-yl)methoxy)methyl)benzonitrile] | 0.5 to 5 | 0.5 to 5
12 | ≤ 500 | NC(=O)c1c(COC[C@@H]2CN(c3cc(F)c(F)c4ncsc34)CC23CN(C(=O)C2(C(F)(F)F)CC2)C3)cccc1C1CCC(F)(F)CC1 [I′-33, 2-(((6-(4,5-difluorobenzo[d]thiazol-7-yl)-2-(1-(trifluoromethyl)cyclopropane-1-carbonyl)-2,6-diazaspiro[3.4]octan-8-yl)methoxy)methyl)-6-(4,4-difluorocyclohexyl)benzamide] | > 10 | > 10
13 | ≤ 500 | CC1(C)C[C@@H]1C(=O)N1CC2(CN(C(=O)c3cnn(Cc4ccc(F)cc4)c3)C[C@H]2COCc2cccc(C3CCC(F)(F)CC3)c2-c2nn[nH]n2)C1 [I′-43, ((S)-8-(((3-(4,4-difluorocyclohexyl)-2-(2H-tetrazol-5-yl)benzyl)oxy)methyl)-2-((S)-2,2-dimethylcyclopropane-1-carbonyl)-2,6-diazaspiro[3.4]octan-6-yl)(1-(4-fluorobenzyl)-1H-pyrazol-4-yl)methanone] | ≤ 0.5 | 5 to 10
14 | ≤ 500 | CC(C)(C)OC(=O)c1c(COCC2CN(C(=O)c3cnn(Cc4ccc(F)cc4)c3)CC23CN(C(=O)[C@H]2CC2(C)C)C3)cccc1C1CCC(F)(F)CC1 (stereo partly drawn) [I′-79, tert-butyl 2-(4,4-difluorocyclohexyl)-6-(((2-((S)-2,2-dimethylcyclopropane-1-carbonyl)-6-(1-(4-fluorobenzyl)-1H-pyrazole-4-carbonyl)-2,6-diazaspiro[3.4]octan-8-yl)methoxy)methyl)benzoate] | > 10 | > 10
15 | ≤ 500 | CC(C)(C(=O)N1CC2(CN(C(=O)c3cnn(Cc4ccc(F)cc4)c3)C[C@H]2COCc2cccc(C3CCC(C(F)(F)F)CC3)c2C(=O)O)C1)C(F)(F)F (stereo partly drawn) [Compound I-94, (S)-2-(((6-(1-(4-fluorobenzyl)-1H-pyrazole-4-carbonyl)-2-(3,3,3-trifluoro-2,2-dimethylpropanoyl)-2,6-diazaspiro[3.4]octan-8-yl)methoxy)methyl)-6-(4-(trifluoromethyl)cyclohexyl)benzoic acid] | 0.5 to 5 | > 10
16 | ≤ 500 | NC(=O)c1c(COC[C@@H]2CN(C(=O)c3cnn(Cc4ccccc4C(=O)O)c3)CC23CN(C(=O)C2(C(F)(F)F)CC2)C3)cccc1C1CCC(F)(F)CC1 [I′-57, (S)-2-((4-(8-(((2-carbamoyl-3-(4,4-difluorocyclohexyl)benzyl)oxy)methyl)-2-(1-(trifluoromethyl)cyclopropane-1-carbonyl)-2,6-diazaspiro[3.4]octane-6-carbonyl)-1H-pyrazol-1-yl)methyl)benzoic acid] | 5 to 10 | 0.5 to 5

Reference: US20260034123A1 (Cedilla Therapeutics, Inc., priority 2022, published 2026)
